Measurements: patent US20050049229A1, “Therapeutic applications of 2-hydroxyacetanilide” (priority 2003, published 2005)
Like-named read-outs stand apart in the source and are kept apart here. Marks after values point to notes of the source that are not given here.

Assays:
[1] = test system: platelet aggregation induced by collagen, arachidonic acid (AA) and adenosine diphosphate (ADP); conditions: Dupin et al.; cited from earlier work
[2] = test system: carrageenan-induced rat-paw oedema; experiment: carrageenan-induced rat paw oedema (plethysmographic method); format: in vivo; conditions: for Mean paw volume ± SEM after 5 hr: 30 min before carrageenan; for Anti-inflammatory Activity Mean ± SEM: A−B/A×100 vs control, in %
Procedure: The plethysmographic method (Winter et al., Proc. Soc. Exp. Biol. Med. III, 1962, pp. 544-547) was then used for recording the volume changes in the rat paw. […] Another two groups received paracetamol at a dose of 300 or 500 mg kg^−1, and a further two groups received aspirin at a dose of 150 or 300 mg kg^−1, while the control group received saline or distilled water. […] The difference in paw volumes before and after the carrageenan injections indicated the volume of inflammation. Anti-inflammatory activities were calculated as A−B/A×100, where A and B denote mean paw volume of control and drug-treated animals respectively.

PAF-induced mortality = experiment: prevention of PAF-induced mortality in rabbits; format: in vivo, rabbit
Procedure: Male rabbits (New Zealand White, 3-3.5 kg) were used to test the ability of 2-hydroxyacetanilide, paracetamol and aspirin to prevent the lethality of intravenous PAF.
PAF was prepared before each injection by dissolution in saline to give a final concentration of 22 μg ml^−1. The resulting solution was injected into the marginal ear vein of the rabbits over a period of approximately 1 minute. In preliminary experiments it was established that an intravenous dose of 11 μg kg^−1 PAF was required to induce consistently fatal pulmonary thrombosis in the animals (n=6). This dose of PAF was used in subsequent experiments with 2-hydroxyacetanilide and paracetamol.
Rabbits were pretreated by intraperitoneal injection of either 2-hydroxyacetanilide (100 or 300 mg kg^−1), paracetamol (300 or 500 mg kg^−1) or aspirin (50 mg kg^−1) 2 hours before the challenging dose of PAF. Each animal was used for only one experiment.

[3] = test system: platelet aggregation induced by AA, PAF or collagen; experiment: in vitro platelet aggregation in human platelet rich plasma; format: cell-based; conditions: human PRP
Procedure: Blood was drawn by vein puncture from healthy human volunteers reported to be free of medications for at least one week. The blood samples were mixed with 3.8% w/v sodium citrate solution (9:1) and centrifuged at 260 g for 15 minutes at 20° C. to obtain platelet rich plasma (PRP). The platelet count was determined by phase contrast microscopy and all aggregation studies were carried out at 37° C. with PRP having platelet counts between 2.5 and 3.0×10^8/ml of plasma. All experiments were performed within 2 hours of PRP preparation.
Platelet aggregation was monitored using a Dual-channel Lumi-aggregometer (Model 400 Chronolog Corporation, Chicago, USA) using 0.45 ml aliquots of PRP. The final volume was made up to 0.5 ml with the test compound dissolved either in normal saline or an appropriate solvent known to be devoid of any effect on aggregation. Aggregation was induced by arachidonic acid (AA), platelet activating factor (PAF) or collagen.
Anti-platelet aggregation effects were studied by pretreatment of PRP with 2-hydroxyacetanilide or paracetamol for 1 minute followed by the addition of the maximum dose of agonist (i.e. AA, PAF or collagen). The resulting aggregation was monitored for 5 minutes following agonist addition by the change in light transmission as a function of time.
The results were expressed as percentage inhibition after the addition of aggregation agents compared with controls. Once the anti-platelet aggregation activity of the inhibitors against these agonists was established, dose-response curves were constructed to calculate the IC50 values of the inhibitors.

[4] = test system: platelet aggregation induced by AA, PAF or collagen; experiment: in vivo platelet aggregation (PRP from orally dosed rabbits); parameters: species or system rabbit; conditions: Oryctolagus cuniculus, 500 mg/kg oral, blood 2 hours after
Procedure: Both 2-hydroxyacetanilide and paracetamol were tested for in vivo platelet aggregation activity at a dose of 500 mg kg^−1. The compounds were first separately dissolved in 0.5% w/v gum tragacanth and then administered orally to albino rabbits of either sex. Control groups received only the vehicle.
Blood was drawn from the marginal ear of the rabbits 2 hours after drug administration. The blood was then mixed with 3.8% w/v sodium citrate solution (9:1) and centrifuged at 260 g for 15 minutes at 20° C. to prepare platelet rich plasma (PRP). The platelet count was determined by phase contrast microscopy and all aggregation studies were carried out at 37° C. with PRP having platelet counts between 2.5 and […] /ml of plasma. The experiments were performed within 2 hours of PRP preparation.
Platelet aggregation was monitored using a Dual-Channel Lumi-aggregometer (Model 400 Chronolog Corporation, Chicago, USA) using 0.45 ml aliquots of PRP. Aggregation was induced with platelet activating factor (PAF, 0.8 μM), collagen (20 μg mL^−1) or arachidonic acid (AA, 1.7 mM).

[5] = overdose, about twenty 500 mg tablets; cited from earlier work
[6] = test system: acetic acid induced writhing; experiment: acetic acid induced writhing test in mice; format: in vivo, mouse; conditions: for No. of writhings: 30 min before 1% acetic acid IP, counted 10 minutes
Procedure: Analgesia was assessed by the method of Koster et al. (Federation Proceedings, 1959, 18, pp. 412-416), otherwise known as the acetic acid induced writhing test. When acetic acid is injected intraperitoneally it causes abdominal contractions or writhings, a syndrome characterized by a wave of contraction of the abdominal musculature followed by extension of hind limbs. By counting the number of writhes a measure of the effective analgesia provided can be obtained.
Male Wister mice (20-25 g) were divided into six groups, with five mice per group, for use in the writhing assay. The compounds 2-hydroxyacetanilide or paracetamol were administered orally 30 minutes prior to an intraperitoneal injection of 1% acetic acid. Immediately after administering the acetic acid, the number of writhings were counted and recorded for the subsequent 10 minutes. Analgesic potency was taken as difference between a test group mean and its control.

Row | Structure (SMILES) | in vitro inhibition of platelet aggregation [1] | Mean paw volume ± SEM after 5 hr ([2]; dose 150 mg/kg) | Anti-inflammatory Activity Mean ± SEM ([2]; dose 150 mg/kg) | Mean paw volume ± SEM after 5 hr ([2]; dose 500 mg/kg) | Anti-inflammatory Activity Mean ± SEM ([2]; dose 500 mg/kg) | Survival (PAF-induced mortality; 50 mg/kg IP 2 hours before PAF 11 μg/kg IV) | IC50 ([3]; aggregation agent AA, read-out: IC50 ± SEM, platelet aggregation induced by AA) | IC50 ([3]; aggregation agent PAF, read-out: IC50 ± SEM, platelet aggregation induced by PAF) | IC50 ([3]; aggregation agent collagen, read-out: IC50 ± SEM, platelet aggregation induced by Collagen) | inhibition at 500 mg/kg ([4]; AA 1.7 mM, read-out: % inhibition of in vivo platelet aggregation induced by AA) | inhibition at 500 mg/kg ([4]; PAF 0.8 μM, read-out: % inhibition of in vivo platelet aggregation induced by PAF) | dose that may cause hepatocellular necrosis [5] | Mean paw volume ± SEM after 5 hr ([2]; dose 300 mg/kg) | Anti-inflammatory Activity Mean ± SEM ([2]; dose 300 mg/kg) | Survival (PAF-induced mortality; 300 mg/kg IP 2 hours before PAF 11 μg/kg IV) | Survival (PAF-induced mortality; 500 mg/kg IP 2 hours before PAF 11 μg/kg IV) | No. of writhings ([6]; 300 mg/kg oral) | No. of writhings ([6]; 500 mg/kg oral) | inhibition at 300 mg/kg ([6]; Mus musculus, 300 mg/kg oral) | inhibition at 500 mg/kg ([6]; Mus musculus, 500 mg/kg oral)
1 | CC(=O)Nc1cccc(O)c1 [3-hydroxyacetanilide] | comparable in vitro inhibition | – | – | – | – | – | – | – | – | – | – | – | – | – | – | – | – | – | – | –
2 | CC(=O)Oc1ccccc1C(=O)O [Aspirin] | – | 0.58 ± 0.08 mL | 28 ± 9 | 0.23 ± 0.03 mL | 71 ± 3 | 7/10* | – | – | – | – | – | – | – | – | – | – | – | – | – | –
3 | CC(=O)Nc1ccc(O)cc1 [Paracetamol, 4-hydroxyacetanilide] | – | – | – | 0.72 ± 0.07 mL | 10 ± 3 | – | 136 ± 1 µM | 167 ± 8 µM | 263 ± 1 µM | 5 ± 3% | 8 ± 2% | ≥ 10 g | 0.75 ± 0.06 mL | 6 ± 2 | 0/10 | 2/10 | 20 | 3.2 | 33% | 89%
